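Values below derive from 48-hour exposures of cells grown in 96-well plates, with endpoints linearly interpolated between the two concentrations bracketing the appropriate inhibition level. TGI: total growth inhibition.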
Columns and labels:
Assay in all cases: growth of human tumour cells (NCI), 48 h
MDA-MB-435 = system: MDA-MB-435
M14 melanoma = system: M14 melanoma
TK-10 renal = system: TK-10 renal
COLO 205 colon = system: COLO 205 colon
NCI-H23 lung = system: NCI-H23 lung
SW-620 colon = system: SW-620 colon
CCRF-CEM leukemia = system: CCRF-CEM leukemia
RXF 393 renal = system: RXF 393 renal
SR leukemia = system: SR leukemia
HOP-62 NSCLC = system: HOP-62 NSCLC
A549 NSCLC = system: A549 NSCLC
U251 CNS = system: U251 CNS
SNB-75 CNS = system: SNB-75 CNS
PC-3 prostate = system: PC-3 prostate
LOX IMVI melanoma = system: LOX IMVI melanoma
UO-31 renal = system: UO-31 renal
SK-MEL-28 melanoma = system: SK-MEL-28 melanoma
SK-MEL-5 melanoma = system: SK-MEL-5 melanoma
MDA-N = system: MDA-N
SF-539 CNS = system: SF-539 CNS
NCI-H522 lung = system: NCI-H522 lung
K-562 leukemia = system: K-562 leukemia
HCC-2998 colon = system: HCC-2998 colon
OVCAR-8 ovarian = system: OVCAR-8 ovarian
NCI/ADR-RES ovarian = system: NCI/ADR-RES ovarian
MALME-3M melanoma = system: MALME-3M melanoma
SK-MEL-2 melanoma = system: SK-MEL-2 melanoma
IGROV1 ovarian = system: IGROV1 ovarian
HS 578T breast = system: HS 578T breast
DU-145 prostate = system: DU-145 prostate
NCI-H226 lung = system: NCI-H226 lung
SF-295 CNS = system: SF-295 CNS
SNB-19 CNS = system: SNB-19 CNS
SF-268 CNS = system: SF-268 CNS
SN12C renal = system: SN12C renal
MDA-MB-231 breast = system: MDA-MB-231 breast
ACHN renal = system: ACHN renal
OVCAR-5 ovarian = system: OVCAR-5 ovarian
KM12 colon = system: KM12 colon
NCI-H460 lung = system: NCI-H460 lung
CAKI-1 renal = system: CAKI-1 renal
HCT-116 colon = system: HCT-116 colon
EKVX NSCLC = system: EKVX NSCLC
MOLT-4 leukemia = system: MOLT-4 leukemia
A498 renal = system: A498 renal
BT-549 breast = system: BT-549 breast
RPMI-8226 leukemia = system: RPMI-8226 leukemia
HOP-92 NSCLC = system: HOP-92 NSCLC
HCT-15 colon = system: HCT-15 colon
UACC-62 melanoma = system: UACC-62 melanoma
SK-OV-3 ovarian = system: SK-OV-3 ovarian
HL-60(TB) leukemia = system: HL-60(TB) leukemia
OVCAR-4 ovarian = system: OVCAR-4 ovarian
MCF7 breast = system: MCF7 breast
OVCAR-3 ovarian = system: OVCAR-3 ovarian
UACC-257 melanoma = system: UACC-257 melanoma
T-47D breast = system: T-47D breast
HT29 colon = system: HT29 colon
786-0 renal = system: 786-0 renal
DMS 273 small cell lung = system: DMS 273 small cell lung
XF 498 CNS = system: XF 498 CNS
DMS 114 small cell lung = system: DMS 114 small cell lung
SNB-78 CNS = system: SNB-78 CNS
M19-MEL melanoma = system: M19-MEL melanoma
LXFL 529 NSCLC = system: LXFL 529 NSCLC

Question: What does the source list for O=CC(=C(I)I)c1ccccc1?
Answer: TGI (MDA-MB-435): 5.65 µM; TGI (M14 melanoma): 4.6 µM; TGI (TK-10 renal): 5.83 µM; TGI (COLO 205 colon): 6.79 µM; TGI (NCI-H23 lung): 4.97 µM; TGI (SW-620 colon): 2170 nM; TGI (CCRF-CEM leukemia): 650 nM; TGI (RXF 393 renal): 3.58 µM; TGI (SR leukemia): 1250 nM; TGI (HOP-62 NSCLC): 19.5 µM; TGI (A549 NSCLC): 41.8 µM; TGI (U251 CNS): 14.5 µM; TGI (SNB-75 CNS): 9.97 µM; TGI (PC-3 prostate): 13.7 µM; TGI (LOX IMVI melanoma): 4.06 µM; TGI (UO-31 renal): 7.63 µM; TGI (SK-MEL-28 melanoma): 7.36 µM; TGI (SK-MEL-5 melanoma): 14 µM; TGI (MDA-N): 4.81 µM; TGI (SF-539 CNS): 5.17 µM; TGI (NCI-H522 lung): 4.06 µM; TGI (K-562 leukemia): 1340 nM; TGI (HCC-2998 colon): 26.4 µM; TGI (OVCAR-8 ovarian): 6.95 µM; TGI (NCI/ADR-RES ovarian): > 38.5 µM; TGI (MALME-3M melanoma): 4.4 µM; TGI (SK-MEL-2 melanoma): 23.2 µM; TGI (IGROV1 ovarian): 11.2 µM; TGI (HS 578T breast): 12.6 µM; TGI (DU-145 prostate): 19.5 µM; TGI (NCI-H226 lung): 32 µM; TGI (SF-295 CNS): 31.2 µM; TGI (SNB-19 CNS): 21.1 µM; TGI (SF-268 CNS): 9.97 µM; TGI (SN12C renal): 6.39 µM; TGI (MDA-MB-231 breast): 5.57 µM; TGI (ACHN renal): 8.8 µM; TGI (OVCAR-5 ovarian): 15.1 µM; TGI (KM12 colon): 12.7 µM; TGI (NCI-H460 lung): 40.9 µM; TGI (CAKI-1 renal): 7.83 µM; TGI (HCT-116 colon): 2780 nM; TGI (EKVX NSCLC): 36.9 µM; TGI (MOLT-4 leukemia): 944 nM; TGI (A498 renal): 40.7 µM; TGI (BT-549 breast): 14.1 µM; TGI (RPMI-8226 leukemia): 2620 nM; TGI (HOP-92 NSCLC): 6.57 µM; TGI (HCT-15 colon): 5.01 µM; TGI (UACC-62 melanoma): 17.5 µM; TGI (SK-OV-3 ovarian): 29.9 µM; TGI (HL-60(TB) leukemia): 275 nM; TGI (OVCAR-4 ovarian): 4.37 µM; TGI (MCF7 breast): 16.2 µM; TGI (OVCAR-3 ovarian): 3.69 µM; TGI (UACC-257 melanoma): 8.05 µM; TGI (T-47D breast): 9.18 µM; TGI (HT29 colon): > 32.5 µM; TGI (786-0 renal): 5.78 µM

Question: How did the TGI (M14 melanoma) turn out when CCN(CC)CSc1nc2ccccc2s1 was run?
Answer: > 100 µM

Question: And the TGI (TK-10 renal)?
Answer: > 100 µM

Question: And the TGI (COLO 205 colon)?
Answer: > 100 µM

Question: What about the TGI (NCI-H23 lung) of the same compound?
Answer: > 100 µM

Question: And the TGI (SW-620 colon)?
Answer: > 100000 nM

Question: What about the TGI (CCRF-CEM leukemia) of the same compound?
Answer: > 100000 nM

Question: What about the TGI (DMS 273 small cell lung) of the same compound?
Answer: > 100 µM

Question: What about the TGI (A549 NSCLC) of the same compound?
Answer: > 100 µM

Question: What about the TGI (SNB-75 CNS) of the same compound?
Answer: > 100 µM

Question: And the TGI (XF 498 CNS)?
Answer: > 100 µM

Question: What about the TGI (LOX IMVI melanoma) of the same compound?
Answer: > 100 µM

Question: And the TGI (SK-MEL-28 melanoma)?
Answer: > 100 µM

Question: And the TGI (SK-MEL-5 melanoma)?
Answer: > 100 µM

Question: And the TGI (SF-539 CNS)?
Answer: > 100 µM

Question: What about the TGI (NCI-H522 lung) of the same compound?
Answer: > 100 µM

Question: And the TGI (K-562 leukemia)?
Answer: > 100000 nM

Question: And the TGI (HCC-2998 colon)?
Answer: > 100 µM

Question: And the TGI (OVCAR-8 ovarian)?
Answer: > 100 µM

Question: What about the TGI (IGROV1 ovarian) of the same compound?
Answer: > 100 µM

Question: And the TGI (NCI-H226 lung)?
Answer: > 100 µM

Question: And the TGI (DMS 114 small cell lung)?
Answer: > 100 µM

Question: What about the TGI (SN12C renal) of the same compound?
Answer: > 100 µM

Question: What about the TGI (KM12 colon) of the same compound?
Answer: > 100 µM

Question: And the TGI (CAKI-1 renal)?
Answer: > 100 µM

Question: And the TGI (SNB-78 CNS)?
Answer: > 100 µM

Question: And the TGI (EKVX NSCLC)?
Answer: > 100 µM

Question: And the TGI (MOLT-4 leukemia)?
Answer: > 100000 nM

Question: And the TGI (M19-MEL melanoma)?
Answer: > 100 µM

Question: What about the TGI (RPMI-8226 leukemia) of the same compound?
Answer: > 100000 nM

Question: And the TGI (HOP-92 NSCLC)?
Answer: > 100 µM

Question: What about the TGI (HCT-15 colon) of the same compound?
Answer: > 100 µM

Question: What about the TGI (UACC-62 melanoma) of the same compound?
Answer: > 100 µM

Question: And the TGI (SK-OV-3 ovarian)?
Answer: > 100 µM

Question: And the TGI (HL-60(TB) leukemia)?
Answer: > 100000 nM

Question: And the TGI (OVCAR-4 ovarian)?
Answer: > 100 µM

Question: And the TGI (OVCAR-3 ovarian)?
Answer: > 100 µM

Question: And the TGI (UACC-257 melanoma)?
Answer: > 100 µM

Question: What about the TGI (HT29 colon) of the same compound?
Answer: > 100 µM

Question: What about the TGI (LXFL 529 NSCLC) of the same compound?
Answer: > 100 µM

From PubChem BioAssay (NCI)
